In US9890166B2, “Imidazopyrrolidine derivatives and their use in the treatment of disease” (NOVARTIS AG, priority 2013, dated 2018):

Assays:
[1] = system: THP-1 cells; test: Cell growth inhibition assay (CellTiter-Glo), THP-1; settings: for GI50: Homo sapiens, THP-1, read-out: THP-1 GI50; for THP-1 TGI: THP-1 cells, total growth inhibition, CellTiter-Glo;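 on all read-outs here: viability read as cellular ATP luminescence after 4 days, 3-fold dilution series from 10 µM, DMSO vehicle-treated cells taken as 100%, cell-free medium wells as −100%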
[2] = system: K-562 cells; test: Cell growth inhibition assay (CellTiter-Glo), K-562; settings: for GI50: Homo sapiens, K562, read-out: K-562 GI50; for K-562 TGI: K-562 cells, total growth inhibition, CellTiter-Glo;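 on all read-outs here: cellular ATP measured by luminescence after 4 days of exposure, 3-fold dilution series from 10 µM, DMSO vehicle-treated cells define 100%, cell-free medium wells −100%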
[3] = system: MV-4-11 cells; test: Cell growth inhibition assay (CellTiter-Glo), MV-4-11; settings: for GI50: Homo sapiens, MV4-11, read-out: MV-4-11 GI50; for MV-4-11 TGI: MV-4-11 cells, total growth inhibition, CellTiter-Glo;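 on all read-outs here: cellular ATP luminescence after 4 days, 3-fold dilution series from 10 µM top dose, vehicle (0.1% DMSO) set to 100%, cell-free medium set to −100%, day 0 corrected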
[4] = target: BRD4 (His-Brd4(44-477)) (Homo sapiens (Human), UniProt O60885); test: TR-FRET in-vitro binding assay for BRD4; settings: single determination or n ≧ 2 independent determinations, read-out: Biochemical IC50 BRD4
Protocol: (§1) TR-FRET In-Vitro Binding Assays for BRD2, BRD3, and BRD4:
(§2) All assays were performed in 384 well microtiter plates. Each assay plate contained 8-point serial dilutions for 40 test compounds, plus 16 high- and 16 low controls. Liquid handling and incubation steps were done on an Innovadyne Nanodrop Express equipped with a robotic arm (Thermo CatX, Perkin Elmer/Caliper Twister II) and an incubator (Liconic STX40, Thermo Cytomat 2C450). The assay plates were prepared by addition of 50 nl per well of compound solution in 90% DMSO HummingBird nanodispenser (Zinsser Analytic). […] Reactions were incubated at 30° C. for 35 minutes. […] After 35 minutes incubation at 30° C., plates were measured in a Perkin Elmer EnVision multilabel reader.
(§3) Preparation of Compound Dilutions
(§4) Test compounds were dissolved in DMSO (10 mM) and transferred into 1.4 mL flat bottom or V-shaped Matrix tubes carrying a unique 2D matrix. The stock solutions were stored at […] if not used immediately. For the test procedure the vials were defrosted and identified by a scanner whereby a working sheet was generated that guided the subsequent working steps.
(§5) Compound dilutions were made in 96 well plates. This format enabled the assay of maximally 40 individual test compounds at 8 concentrations (single points) including 4 reference compounds, if desired (known BET inhibitors from the prior art, for this and other assays of the type disclosed herein). The dilution protocol included the production of “pre-dilution plates”, “master plates” and “assay plates”.
(§6) Pre-Dilution Plates: 96 polypropylene well plates were used as pre-dilution plates. A total of 4 pre-dilution plates were prepared including 10 test compounds each on the plate positions A1-A10, one standard compound at A11 and one DMSO control at A12. All dilution steps were done on a HamiltonSTAR robot.
(§7) These plates were used directly for the assay which was performed in a total volume of 13.55 μL.

[5] = target: BRD3 (His-Brd3(20-477)) (Homo sapiens (Human), UniProt Q15059); test: TR-FRET in-vitro binding assay for BRD3; settings: single determination or n ≧ 2 independent determinations, read-out: Biochemical IC50 BRD3
Protocol: as §1, §2, §3, §4, §5, §6, §7

[6] = target: CREBBP bromodomain (His-CREBBP(1081-1197)) (Homo sapiens (Human), UniProt Q92793); test: AlphaScreen in-vitro binding assay for CREBBP; settings: single determination or n ≧ 2 independent determinations, read-out: Biochemical IC50 CREBBP
Protocol: AlphaScreen In-Vitro Binding Assay for CREBBP
In order to assess bromodomain selectivity, we set up a binding assay using the bromodomain encoded by the CREBBP gene. […] Reactions were incubated at 30° C. for 35 minutes. Subsequently 4.5 μl per well detection mix (50 mM HEPES, pH 7.5, 0.005% Tween20, 0.02% BSA, 150 mM NaCl, 45 μg/ml Ni-chelate acceptor beads, 45 μg/mIstreptavidin-donor beads) (Perkin Elmer)) were added. After 60 minutes incubation at room temperature, plates were measured in a Perkin Elmer EnVision multilabel reader. IC50 values were determined from percent inhibition values at different compound concentrations by non-linear regression analysis.
as §3, §4, §5, §6, §7

Chain of BRD3 (His-Brd3(20-477)) (Q15059 20-477): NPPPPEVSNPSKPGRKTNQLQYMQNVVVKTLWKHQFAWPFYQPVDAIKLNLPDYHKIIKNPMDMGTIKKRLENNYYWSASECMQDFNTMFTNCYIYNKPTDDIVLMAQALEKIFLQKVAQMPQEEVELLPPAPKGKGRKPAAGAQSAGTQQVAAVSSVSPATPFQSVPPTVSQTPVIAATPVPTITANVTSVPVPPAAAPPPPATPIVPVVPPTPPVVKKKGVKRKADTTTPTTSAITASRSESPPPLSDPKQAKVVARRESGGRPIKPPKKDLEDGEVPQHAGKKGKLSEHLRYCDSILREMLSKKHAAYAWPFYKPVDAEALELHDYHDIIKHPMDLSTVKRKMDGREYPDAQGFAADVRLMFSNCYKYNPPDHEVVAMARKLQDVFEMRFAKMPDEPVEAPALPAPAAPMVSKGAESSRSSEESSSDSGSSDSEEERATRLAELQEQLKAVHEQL
Chain of CREBBP bromodomain (His-CREBBP(1081-1197)) (Q92793 1081-1197): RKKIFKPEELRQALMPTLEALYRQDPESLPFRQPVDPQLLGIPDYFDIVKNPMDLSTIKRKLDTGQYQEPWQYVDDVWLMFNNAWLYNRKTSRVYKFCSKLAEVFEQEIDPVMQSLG

| Compound | GI50 [1] [nM] | GI50 [2] [nM] | GI50 [3] [nM] | IC50 [4] [nM] | IC50 [5] [nM] | IC50 [6] [nM] | THP-1 TGI [1] [nM] | K-562 TGI [2] [nM] | MV-4-11 TGI [3] [nM] |
| --- | --- | --- | --- | --- | --- | --- | --- | --- | --- |
| Cc1nc2c([nH]1)C(c1ccc(Cl)cc1)N(c1cc(C)c3nnn(C)c3c1)C2=O (centres unmarked) [Example 1, 6-(4-chlorophenyl)-5-(3,7-dimethyl-3H-benzo[d][1,2,3]triazol-5-yl)-2-methyl-5,6-dihydropyrrolo[3,4-d]imidazol-4(1H)-one] | 38.4 | 160 | 26.3 |  |  |  | 79.9 | >10000 | 52.35 |
| Cc1cc(N2C(=O)c3nc(C)n(C4COC4)c3C2c2ccc(Cl)cc2)cc2c1nnn2C (centres unmarked) [Example 94, 6-(4-chlorophenyl)-5-(1,4-dimethyl-1H-benzo[d][1,2,3]triazol-6-yl)-2-methyl-1-(oxetan-3-yl)-5,6-dihydropyrrolo[3,4-d]imidazol-4(1H)-one] | 47.4 | 270 | 40.6 | 71.5 | 46 | 8050 | 94.35 | >10000 | 68.7 |
| Cc1cc(N2C(=O)c3nc(C4CC4)n(C4COC4)c3C2c2ccc(Cl)cc2)cc2c1nnn2C (centres unmarked) [Example 95, 6(4-chlorophenyl)-2-cyclopropyl-5-(1,4-dimethyl-1H-benzo[d][1,2,3]triazol-6-yl)-1-(oxetan-3-yl)-5,6-dihydropyrrolo[3,4-d]imidazol-4(1H)-one] | 17 | 85.7 | 28 | 26.5 | 29 | 1950 | 52.4 | >10000 | 42 |
| Cc1cc(N2C(=O)c3nc(C4=CCN(C)CC4)n(C4COC4)c3C2c2ccc(Cl)cc2)cc2c1nnn2C (centres unmarked) [Example 96, 6-(4-chlorophenyl)-5-(1,4-dimethyl-1H-benzo[d][1,2,3]triazol-6-yl)-2-(1-methyl-1,2,3,6-tetrahydropyridin-4-yl)-1-(oxetan-3-yl)-5,6-dihydropyrrolo[3,4-d]imidazol-4(1H)-one] | 202 | 351 | 79.3 | 39 | 33.5 | 3950 | 273.6 | >10000 | 120.6 |
| Cc1cc(N2C(=O)c3nc(C4=CCOCC4)[nH]c3C2c2ccc(Cl)cc2)cn2c(C)nnc12 (centres unmarked) [Example 116, 6-(4-chlorophenyl)-2-(3,6-dihydro-2H-pyran-4-yl)-5-(3,8-dimethyl-[1,2,4]triazolo[4,3-a]pyridin-6-yl)-5,6-dihydropyrrolo[3,4-d]imidazol-4(1H)-one] | 91.1 | 330 | 71.5 | 41 | 58 | 2250 | 166 | >10000 | 117.5 |
| COc1ccc(-c2nc3c([nH]2)C(c2ccc(Cl)cc2)N(c2cc(C)c4nnc(C)n4c2)C3=O)cn1 (centres unmarked) [Example 117, 6-(4-chlorophenyl)-5-(3,8-dimethyl-[1,2,4]triazolo[4,3-a]pyridin-6-yl)-2-(6-methoxypyridin-3-yl)-5,6-dihydropyrrolo[3,4-d]imidazol-4(1H)-one] | 81 | 207 | 69.5 |  |  |  | 129 | >10000 | 112 |
| COc1cc(C(F)(F)F)ccc1-c1nc2c([nH]1)C(c1ccc(Cl)cc1)N(c1cc(C)c3nnc(C)n3c1)C2=O (centres unmarked) [Example 136, 6-(4-chlorophenyl)-5-(3,8-dimethyl-[1,2,4]triazolo[4,3-a]pyridin-6-yl)-2-(2-methoxy-4-(trifluoromethyl)phenyl)-5,6-dihydropyrrolo[3,4-d]imidazol-4(1H)-one] | 79.4 | 227 | 76.6 | 30 | 32 | 2600 | 179.5 | >10000 | 114 |
| COc1cc(F)ccc1-c1nc2c([nH]1)C(c1ccc(Cl)cc1)N(c1cc(C)c3nnc(C)n3c1)C2=O (centres unmarked) [Example 137] | 101 | 254 | 90.2 | 84.5 | 89 |  | 213 | >10000 | 124.5 |
| COc1ncccc1-c1nc2c(n1C(C)C)C(c1ccc(Cl)cc1)N(c1cc(C)c3nnn(C)c3n1)C2=O (centres unmarked) [Example 157, 6-(4-chlorophenyl)-5-(3,7-dimethyl-3H-[1,2,3]triazolo[4,5-b]pyridin-5-yl)-1-isopropyl-2-(2-methoxypyridin-3-yl)-5,6-dihydropyrrolo[3,4-d]imidazol-4(1H)-one] | 8.82 | 56.8 | 10.6 |  |  |  | 24.75 | >10000 | 15.15 |
| Cc1cc(N2C(=O)c3nc(C4CCOC4)n(C(C)C)c3C2c2ccc(Cl)cc2)nn2c(C)nnc12 (centres unmarked) [Example 170, 6-(4-chlorophenyl)-5-(3,8-dimethyl-[1,2,4]triazolo[4,3-b]pyridazin-6-yl)-1-isopropyl-2-(tetrahydrofuran-3-yl)-5,6-dihydropyrrolo[3,4-d]imidazol-4(1H)-one] |  |  |  | 31 | 43 | > 37000 |  |  |  |

Continued by falling IC50 [4], values first:

| GI50 [1] [nM] | GI50 [2] [nM] | GI50 [3] [nM] | IC50 [4] [nM] | IC50 [5] [nM] | IC50 [6] [nM] | Compound | THP-1 TGI [1] [nM] | K-562 TGI [2] [nM] | MV-4-11 TGI [3] [nM] |
| --- | --- | --- | --- | --- | --- | --- | --- | --- | --- |
| 21.2 | 104 | 15.9 | 21.5 | 34 | 2700 | Cc1cc(N2C(=O)c3nc(C4=CCOCC4)n(C4COC4)c3C2c2ccc(Cl)cc2)cc2c1nnn2C (centres unmarked) [Example 93, 6-(4-chlorophenyl)-2-(3,6-dihydro-2H-pyran-4-yl)-5-(1,4-dimethyl-1H-benzo[d][1,2,3]triazol-6-yl)-1-(oxetan-3-yl)-5,6-dihydropyrrolo[3,4-d]imidazol-4(1H)-one] | 69.35 | >10000 | 32 |
|  |  |  | 16 | 18 | 960 | Cc1cc(N2C(=O)c3nc(C4CCOC4)n(C(C)C)c3C2c2ccc(Cl)cc2)cc2c1nnn2C (centres unmarked) [Example 99, 6-(4-chlorophenyl)-5-(1,4-dimethyl-1H-benzo[d][1,2,3]triazol-6-yl)-1-isopropyl-2-(tetrahydrofuran-3-yl)-5,6-dihydropyrrolo[3,4-d]imidazol-4(1H)-one] |  |  |  |
| 12.3 | 90.2 | 10.8 | 13 | 17 | 2000 | Cc1cc(N2C(=O)c3nc(C4CCOCC4)n(C4COC4)c3C2c2ccc(Cl)cc2)cc2c1nnn2C (centres unmarked) [Example 105, 6-(4-chlorophenyl)-5-(1,4-dimethyl-1H-benzo[d][1,2,3]triazol-6-yl)-1-(oxetan-3-yl)-2-(tetrahydro-2H-pyran-4-yl)-5,6-dihydropyrrolo[3,4-d]imidazol-4(1H)-one] | 27.85 | >10000 | 21.95 |
|  |  |  | 12 | < 11 | 17800 | Cc1cc(N2C(=O)c3nc(C4CCOC4)n(C(C)C)c3[C@H]2c2ccc(Cl)cc2)nn2c(C)nnc12 (stereo partly drawn) [Example 171, (6R)-6-(4-chlorophenyl)-5-(3,8-dimethyl-[1,2,4]triazolo[4,3-b]pyridazin-6-yl)-1-isopropyl-2-(tetrahydrofuran-3-yl)-5,6-dihydropyrrolo[3,4-d]imidazol-4(1H)-one] |  |  |  |
